Experimental data reported in article PMC10793205, “Differential transmetallation of complexes of the anti-cancer thiosemicarbazone, Dp4e4mT: effects on anti-proliferative efficacy, redox activity, oxy-myoglobin and oxy-hemoglobin oxidation” (Chemical Science, 2023).
Where two headings read alike, the source gives them in different places.

Key:
SK-N-MC and AsPC-1 cells = assay: MTT cellular proliferation assay, values stated over both tumor cell-types; type: cell-based, human; settings: for Mean therapeutic index: average of the therapeutic indices for SK-N-MC and AsPC-1 vs MRC-5, 72 h/37 °C; for IC50: SK-N-MC and AsPC-1, after 72 h, read-out: IC50 (range over both cell-types)
Description: The anti-proliferative activity of Dp4e4mT relative to its complexes with Fe(III), Co(III), Ni(II), Cu(II), Zn(II), Ga(III), and Pd(II) was examined over incubation periods of 24-, 48-, and 72 h/37 °C (Table 2). These studies were performed using human SK-N-MC neuroepithelioma and AsPC-1 pancreatic adenocarcinoma cells that we have previously examined to assay other ligands.[15,28,43]
To examine the selectivity of the Dp4e4mT complexes against neoplastic versus normal mortal cells, their anti-proliferative efficacy was compared to mortal MRC-5 fibroblasts after a 72 h/37 °C incubation (Table 3). […] To further examine selectivity, an in vitro therapeutic index was calculated as per our previous investigations.[28,57,59,66,67] This parameter is derived from the ratio of the IC50 of MRC-5 cells/IC50 of SK-N-MC or AsPC-1 cells; with high ratios indicating greater selective anti-proliferative activity against neoplastic cells (Table 3). The mean therapeutic index is the average of the therapeutic indices calculated for both tumor cell-types. […] The mean therapeutic index of Dp4e4mT exceeded that obtained for clinically trialed DpC (157), as well as that of Dp44mT (112) and DFO (6). […]
All cell lines were procured from the American Type Culture Collection (ATCC; Manassas, VA). The SK-N-MC neuroepithelioma cell line and the mortal MRC-5 fibroblasts were cultured in minimum essential medium (Sigma-Aldrich), while the AsPC-1 cell line was cultured in Roswell Park Memorial Institute 1640 medium (Thermo Fisher Scientific, MA, USA). Both media were supplemented with 10% fetal calf serum, non-essential amino acids (1 mM), sodium pyruvate (1 mM), L-glutamine (2 mM), penicillin (100 U/mL), streptomycin (100 U/mL), and Fungizone (0.5 µg/mL). Cells were maintained at 37 °C in an incubator under a humidified atmosphere with 5% CO 2, following established protocols. 11 Cellular Proliferation Assay
Cellular proliferation was evaluated through the established 3-(4,5-dimethylthiazol-2-yl)-2,5-diphenyltetrazolium bromide (MTT) proliferation assay, validated by viable cell counts.12 […]
Ligands and complexes were dissolved in DMSO to make a stock solution of 10 mM, subsequently diluted in culture media. For cell culture experiments, the DMSO's maximum concentration remained below 0.5% (v/v), with no discernible impact on proliferation.12 MTT […]
Trypan blue staining.12 Analysis of the data was executed employing MARS Data Analysis Software (BMG LabTech; version 3.30). The concentration of agents necessary to inhibit cellular proliferation by 50% (IC 50) was then calculated. […]

[1] = Transmetallation kinetics with Cu(OAc)2 in DMSO (time-resolved UV-vis); type: physicochemical; settings: for Observed pseudo first order rate constant kobs, Cu(OAc)2 (only or first step): 10-fold excess of Cu(OAc)2 in DMSO, 25 °C
Description: The capacity of the Fe(III), Ni(II), Co(III), Zn(II), Ga(III), and Pd(II) complexes of Dp4e4mT to transmetallate with Cu(II) and/or Fe(III) to result in redox active Cu(II) and Fe(III) complexes could be critical in understanding their anti-proliferative efficacy, redox activity, and ability to oxidize oxy-Mb and oxy-Hb. To examine this, LC-MS spectrometry was performed in DMSO after the addition of 1 equivalent of FeCl3 or Cu(OAc)2 and the solutions then incubated for 24 h/20 °C due to slow reaction kinetics. This solution was then diluted 1 : 1 in methanol and LC-MS performed using a mobile phase consisting of 90% MeOH, 9.9% water, and 0.1% formic acid (Fig. S2–S9 ^†). These investigations were supported by EPR studies in DMSO after the addition of 1 equivalent of FeCl3 or Cu(OAc)2 incubated under the same conditions (Fig. 3A–G). As a third method to investigate transmetallation, kinetic studies using time-resolved UV-vis spectroscopy were performed under pseudo-first order conditions with a 10-fold excess of FeCl3 or Cu(OAc)2 in DMSO (Fig. S11–S16 ^†). The pseudo-first order rate constants were calculated from the time-dependent UV-vis spectroscopy data (at all wavelengths) with Reactlab Kinetics[49] and collected in Table S2. ^† […]
Time-dependent UV-Vis absorption spectra were measured on an Agilent 8453 diode array UV−Vis spectrophotometer, equipped with a thermostatted (± 0.1 °C) multicell transport cooled by a Huber Ministat 230 recirculating cooling bath. Spectral analysis was carried out with Reactlab Kinetics. 10 […]
Table S2. Observed pseudo first order rate constants (k obs, s−1) for reactions of each Dp4e4mT complex with a 10-fold excess of Cu(OAc) 2 or FeCl 3 in DMSO or water (pH 7.4 or 5.0) at 25 °C. […]
[Co(Dp4e4mT)2]+ No reaction No reaction No reaction No reaction […]
a Reaction could not be deciphered by UV-Vis spectroscopy; bchlorido ligand hydrolysis

[2] = Cyclic voltammetry (redox potentials); type: physicochemical; settings: 1 mM in MeCN/H2O 7 : 3 (v/v) + 0.1 M Et4NClO4, sweep rate 100 mV s^−1
Text: The redox potentials of Fe(III)- and Cu(II)-thiosemicarbazone complexes have been extensively studied and are important for understanding intracellular redox activity and ROS generation.[23,27,28,42] Considering this, the electrochemical properties of [Fe(Dp44mT)2]^+, [Fe(DpC)2]^+, [Fe(Dp4e4mT)2]^+, [Co(Dp4e4mT)2]^+, [Ni(Dp4e4mT)2], [Cu(Dp4e4mT)Cl], [Ga(Dp4e4mT)2]^+, and [Pd(Dp4e4mT)Cl] were investigated with cyclic voltammetry in MeCN : H2O (70 : 30 v/v; Fig. 4A and B). This solvent system was implemented to provide sufficient solubility and because it has been used by our laboratories previously to measure potentials of thiosemicarbazone complexes enabling effective comparison.[28,45,57–59]
Fig. 4 Cyclic voltammograms of: (A) [Fe(Dp44mT)2]^+, [Fe(DpC)2]^+, and [Fe(Dp4e4mT)2]^+. (B) [Co(Dp4e4mT)2]^+, [Ni(Dp4e4mT)2], [Cu(Dp4e4mT)Cl], [Ga(Dp4e4mT)2]^+, and [Pd(Dp4e4mT)Cl] (1 mM in MeCN/H2O 7 : 3 (v/v) + 0.1 M Et4NClO4) at a sweep rate of 100 mV s^−1. The voltammograms were recorded using a glassy carbon working electrode versus a […] (NHE). […]
Cyclic voltammograms were acquired for the Fe(III), Co(III), Ni(II), Cu(II), Ga(III), and Pd(II) complexes of Dp4e4mT utilizing a BAS100B/W potentiostat, equipped with an aqueous Ag/AgCl reference electrode, a glassy carbon working electrode, and a Pt wire auxiliary […]
electrode. […]

[3] = listed as Dp4e4mT Co(III) complex
[4] = listed as Dp4e4mT Pd(II) complex

| SMILES | Mean therapeutic index (SK-N-MC and AsPC-1 cells) | Observed pseudo first order rate constant kobs, Cu(OAc)2 (only or first step) [1] | Redox potential (mV vs. NHE) [2] | IC50 (SK-N-MC and AsPC-1 cells) | other results |
| --- | --- | --- | --- | --- | --- |
| CCN(C)C(=S)NN=C(c1ccccn1)c1ccccn1 [Dp4e4mT, di-2-pyridylketone-4-ethyl-4-methyl-3-thiosemicarbazone] | 210 |  |  |  |  |
| CN(C)C(=S)NN=C(c1ccccn1)c1ccccn1 [Dp44mT, di-2-pyridylketone 4,4-dimethyl-3-thiosemicarbazone, reference compound] | 112 |  |  |  |  |
| CN(C(=S)NN=C(c1ccccn1)c1ccccn1)C1CCCCC1 [DpC, di-2-pyridylketone 4-cyclohexyl-4-methyl-3-thiosemicarbazone, reference compound] | 157 |  |  |  | IC50 (SK-N-MC and AsPC-1 cells; Homo sapiens): 18 to 28 nM |
| CCN(C)C([S-])=NN=C(c1ccccn1)c1ccccn1.CCN(C)C([S-])=NN=C(c1ccccn1)c1ccccn1.[Co+3] [[Co(Dp4e4mT)2]^+] | 3 | No reaction | –642 mV vs. NHE | 818 to 1570 nM | IC50 (SK-N-MC and AsPC-1 cells; [3]): 262 to 1570 nM; Mean therapeutic index (SK-N-MC and AsPC-1 cells; [3]): 3–9 |
| CCN(C)C([S-])=NN=C(c1ccccn1)c1ccccn1.[Cl-].[Cu+2] [[Cu(Dp4e4mT)Cl]] | 130 |  | −151 mV vs. NHE |  | Redox potential (mV vs. NHE) ([2]; listed as [Cu(Dp4e4mT)(Cl)]^±): –151 mV vs. NHE |
| CCN(C)C([S-])=NN=C(c1ccccn1)c1ccccn1.CCN(C)C([S-])=NN=C(c1ccccn1)c1ccccn1.[Fe+3] [[Fe(Dp4e4mT)2]^+] | 9 |  | +70 mV vs. NHE |  | t½, reaction with Cu(OAc)2, first step ([1]; Cu(OAc)2 in DMSO, first of two consecutive first order steps): ~6 min; t½, reaction with Cu(OAc)2, second step ([1]; Cu(OAc)2 in DMSO, second of two consecutive first order steps): ~1 h; Mean therapeutic index (SK-N-MC and AsPC-1 cells; listed as Dp4e4mT Fe(III) complex): 3–9 |
| CCN(C)C([S-])=NN=C(c1ccccn1)c1ccccn1.CCN(C)C([S-])=NN=C(c1ccccn1)c1ccccn1.[Ga+3] [[Ga(Dp4e4mT)2]^+] | 173 |  |  |  | t½, transmetallation with Cu(OAc)2 ([1]; Cu(OAc)2 in DMSO): 3 to 4 h; Redox potential (mV vs. NHE) ([2]; listed as Dp4e4mT Ga(III) complex): −533 mV vs. NHE; Redox potential (mV vs. NHE) ([2]; listed as [Ga(Dp4e4mT)2]^+/0): –533 (irreversible) mV vs. NHE |
| CCN(C)C([S-])=NN=C(c1ccccn1)c1ccccn1.CCN(C)C([S-])=NN=C(c1ccccn1)c1ccccn1.[Ni+2] [[Ni(Dp4e4mT)2]] | 156 |  | +647 mV vs. NHE | 18 to 76 nM | t½, transmetallation with Cu(OAc)2 ([1]; Cu(OAc)2 in DMSO): ~2 h |
| CCN(C)C([S-])=NN=C(c1ccccn1)c1ccccn1.[Cl-].[Pd+2] [[Pd(Dp4e4mT)Cl]] | 3 | No reaction | –626 (irreversible) mV vs. NHE | 262 to 1570 nM | Redox potential (mV vs. NHE) [2, 4]: −626 mV vs. NHE; Mean therapeutic index (SK-N-MC and AsPC-1 cells; [4]): 3–9 |
| CCN(C)C([S-])=NN=C(c1ccccn1)c1ccccn1.CCN(C)C([S-])=NN=C(c1ccccn1)c1ccccn1.[Zn+2] [[Zn(Dp4e4mT)2]] | 156 | > 0.1 s⁻¹ |  |  |  |
